Measured values reported in US20050283841A1, “Inhibition of protein kinase C-related kinase (PRK) as a treatment for cardiac hypertrophy and heart failure” (priority 2004, published 2005).

Experiments:
[1] = tested on: PRK; settings: Kuwahara et al., 1999; Kondoh et al., 1997; not specific for PRK, also block ROCK; cited from earlier work
[2] = tested on: PRK; assay: Western blot analysis of PRK phosphorylation status in left ventricular tissue after isoproterenol infusion; assay type: in vivo; settings: rat, 4 days of isoproterenol infusion compared to control saline infusion; anti-phospho-PRK Western blot; *P<0.05
Experimental: (§1) For isoproterenol infusion, nine to ten-week-old male Sprague-Dawley rats were anesthetized via passive inhalation of 2.0% isoflurane. When a level of surgical anesthesia was reached, an osmotic minipump (Alzet model 2001, Alza Corp., Palo Alto Calif.) containing either vehicle (0.1% ascorbic acid in 0.9% NaCl), or isoproterenol (4.8 mg/kg/d) was subcutaneously implanted into the back between the scapulae followed by closure with 3-0 silk sutures. After 4 days of recovery, animals were sacrificed and left ventricular tissue processed for Western blot analysis as described below. Average heart weight to body weight ratios in isoproterenol versus vehicle-infused rats increased 48% (data not shown).
Immunoblotting analyses. […] Protein concentration was determined by BCA assay (Pierce), and 20 μg of total protein was resolved by SDS-polyacrylamide gel electrophoresis (PAGE) with gradient gels (4 to 20% polyacrylamide; Invitrogen). […] Film images were then scanned and quantified using a digital image analysis system (Alpha Innotech).
PRK phosphorylation is increased with pathological cardiac hypertrophy in vivo. […] PRK phosphorylation is readily detected by Western analysis employing anti-phospho-PRK antibodies.

[3] = Isoproterenol infusion model of pathological cardiac hypertrophy, heart weight to body weight ratio; assay type: in vivo, Sprague-Dawley rats; settings: isoproterenol 4.8 mg/kg/d, subcutaneous osmotic minipump, 4 days; data not shown
Experimental: as §1

O=S(=O)(c1cccc2cnccc12)N1CCCNCC1 [Fasudil]
PRK inhibition (known inhibitor) [1]: characterized as PRK inhibitors

C[C@@H](N)[C@H]1CC[C@H](C(=O)Nc2ccncc2)CC1 [Y27632]
PRK inhibition (known inhibitor) [1]: characterized as PRK inhibitors

CC(C)NCC(O)c1ccc(O)c(O)c1 (stereo not shown) [isoproterenol]
PRK phosphorylation [2]: increased | Average heart weight to body weight ratios, increase versus vehicle-infused rats [3]: 48%
